Measured values taken from ChEMBL document CHEMBL4393706, “Ursolic acid derivative induces apoptosis in glioma cells through down-regulation of cAMP” (2019).
Activity calls are given as the source filed them. The calls are words filed in the database; no cut-off is given here.

Key:
[1] = test system: U-251; experiment: Induction of morphological changes in human U251 cells assessed as inhibtion of microvilli at 6 to 10 uM measured after 48 hrs by scanning electron microscopy; format: functional, cell-based
[2] = test system: U-251; experiment: Induction of morphological changes in human U251 cells assessed as chromatin condensation at 6 to 10 uM measured after 48 hrs by transmission electron microscopy; format: functional, cell-based
[3] = test system: C6; experiment: Antiproliferative activity against rat C6 cells assessed as cell proliferation at 6 uM measured after 48 hrs relative to control; format: functional; settings: C6, 48 h, read-out: Activity
[4] = test system: U-251; experiment: Induction of morphological changes in human U251 cells assessed as membrane blebbing at 6 to 10 uM measured after 48 hrs by transmission electron microscopy; format: functional, cell-based
[5] = test system: U-251; experiment: Cell cycle arrest in human U251 cells assessed as accumulation at S phase at 8 uM measured after 48 hrs by propidium iodide staining based FACScan flow cytometry (reference value: 16.34 %); format: functional
[6] = test system: C6; experiment: Antiproliferative activity against rat C6 cells assessed as cell proliferation at 4 uM measured after 48 hrs relative to control; format: functional; settings: C6, 48 h, read-out: Activity
[7] = test system: U-251; experiment: Induction of apoptosis in human U251 cells assessed as apoptotic cells at 8 uM measured after 48 hrs by annexin V/FITC-propidium iodide staining-based flow cytometric method relative to control; format: functional
[8] = test system: U-251; experiment: Cell cycle arrest in human U251 cells assessed as accumulation at G0/G1 phase at 4 uM measured after 48 hrs by propidium iodide staining based FACScan flow cytometry (reference value: 29.21 %); format: functional
[9] = test system: C6; experiment: Antiproliferative activity against rat C6 cells measured after 48 hrs by MTT assay; format: functional, cell-based
[10] = test system: U-251; experiment: Induction of morphological changes in human U251 cells assessed as appearance of lipid droplets at 10 uM measured after 48 hrs by transmission electron microscopy; format: functional, cell-based
[11] = test system: U-251; experiment: Cell cycle arrest in human U251 cells assessed as accumulation at S phase at 10 uM measured after 48 hrs by propidium iodide staining based FACScan flow cytometry (reference value: 16.34 %); format: functional
[12] = test system: U-251; experiment: Induction of autophagy in human U251 cells assessed as morphological changes at 10 uM measured after 48 hrs by transmission electron microscopy; format: functional, cell-based
[13] = test system: U-251; experiment: Antiproliferative activity against human U251 cells assessed as reduction in cAMP level at 6 uM measured after 48 hrs by radio-immunoassay relative to control; format: functional; design: scale not given: the % may be the effect or the level left
[14] = test system: U-251; experiment: Antiproliferative activity against human U251 cells assessed as reduction in cAMP level at 2 uM measured after 48 hrs by radio-immunoassay; format: functional, cell-based
[15] = test system: U-251; experiment: Induction of apoptosis in human U251 cells assessed as apoptotic cells at 10 uM measured after 48 hrs by annexin V/FITC-propidium iodide staining-based flow cytometric method relative to control; format: functional
[16] = test system: U-251; experiment: Cell cycle arrest in human U251 cells assessed as accumulation at G2/M phase at 6 uM measured after 48 hrs by propidium iodide staining based FACScan flow cytometry (reference value: 52.67 %); format: functional
[17] = test system: U-251; experiment: Induction of apoptosis in human U251 cells assessed as apoptotic cells at 4 uM measured after 48 hrs by annexin V/FITC-propidium iodide staining-based flow cytometric method ( Rvb = 2.34%); format: functional
[18] = test system: C6; experiment: Antiproliferative activity against rat C6 cells assessed as cell proliferation at 8 uM measured after 48 hrs relative to control; format: functional; settings: C6, 48 h, read-out: Activity
[19] = test system: U-251; experiment: Induction of morphological changes in human U251 cells assessed as movement of chromatin granules towards periphery of nucleoplasm at 10 uM measured after 48 hrs by transmission electron microscopy; format: functional, cell-based
[20] = test system: C6; experiment: Antiproliferative activity against rat C6 cells assessed as cell proliferation at 10 uM measured after 48 hrs relative to control; format: functional; settings: C6, 48 h, read-out: Activity
[21] = test system: U-251; experiment: Cytotoxicity against human U251 cells at 5 uM measured after 48 hrs by MTT assay; format: functional, cell-based
[22] = test system: U-251; experiment: Antiproliferative activity against human U251 cells assessed as cell proliferation at 2 uM measured after 48 hrs relative to control; format: functional; settings: U-251, 48 h, read-out: Activity
[23] = test system: U-251; experiment: Cell cycle arrest in human U251 cells assessed as accumulation at G0/G1 phase at 6 uM measured after 48 hrs by propidium iodide staining based FACScan flow cytometry (reference value: 29.21 %); format: functional
[24] = test system: U-251; experiment: Cell cycle arrest in human U251 cells assessed as accumulation at G2/M phase at 8 uM measured after 48 hrs by propidium iodide staining based FACScan flow cytometry (reference value: 52.67 %); format: functional
[25] = test system: U-251; experiment: Induction of morphological changes in human U251 cells assessed as inhibtion of cell surface extension at 6 to 10 uM measured after 48 hrs by scanning electron microscopy; format: functional, cell-based
[26] = test system: U-251; experiment: Cell cycle arrest in human U251 cells assessed as accumulation at G2/M phase at 10 uM measured after 48 hrs by propidium iodide staining based FACScan flow cytometry (reference value: 52.67 %); format: functional
[27] = test system: U-251; experiment: Induction of morphological changes in human U251 cells assessed as appearance of autophagic vacuoles at 6 to 10 uM measured after 48 hrs by transmission electron microscopy; format: functional, cell-based
[28] = test system: U-251; experiment: Induction of apoptosis in human U251 cells assessed as apoptotic cells at 6 uM measured after 48 hrs by annexin V/FITC-propidium iodide staining-based flow cytometric method relative to control; format: functional
[29] = test system: U-251; experiment: Induction of apoptosis in human U251 cells assessed as increase in apoptotic cells at 2 uM measured after 48 hrs by annexin V/FITC-propidium iodide staining-based flow cytometric method; format: functional, cell-based
[30] = test system: U-251; experiment: Antiproliferative activity against human U251 cells assessed as cell proliferation at 6 uM measured after 48 hrs relative to control; format: functional; settings: U-251, 48 h, read-out: Activity
[31] = test system: U-251; experiment: Antiproliferative activity against human U251 cells assessed as reduction in cAMP level at 4 to 10 uM measured after 48 hrs by radio-immunoassay; format: functional, cell-based
[32] = test system: U-251; experiment: Antiproliferative activity against human U251 cells assessed as cell proliferation at 4 uM measured after 48 hrs relative to control; format: functional; settings: U-251, 48 h, read-out: Activity
[33] = test system: U-251; experiment: Induction of morphological changes in human U251 cells assessed as appearance of foamy cytoplasmic material at 6 to 10 uM measured after 48 hrs by transmission electron microscopy; format: functional, cell-based
[34] = test system: C6; experiment: Antiproliferative activity against rat C6 cells assessed as cell proliferation at 2 uM measured after 48 hrs relative to control; format: functional; settings: C6, 48 h, read-out: Activity
[35] = test system: U-251; experiment: Antiproliferative activity against human U251 cells measured after 48 hrs by MTT assay; format: functional, cell-based
[36] = test system: U-251; experiment: Cell cycle arrest in human U251 cells assessed as accumulation at G0/G1 phase at 8 uM measured after 48 hrs by propidium iodide staining based FACScan flow cytometry (reference value: 29.21 %); format: functional
[37] = test system: U-251; experiment: Antiproliferative activity against human U251 cells assessed as cell proliferation at 10 uM measured after 48 hrs relative to control; format: functional; settings: U-251, 48 h, read-out: Activity
[38] = test system: U-251; experiment: Cell cycle arrest in human U251 cells assessed as accumulation at G0/G1 phase at 10 uM measured after 48 hrs by propidium iodide staining based FACScan flow cytometry (reference value: 29.21 %); format: functional
[39] = test system: U-251; experiment: Cell cycle arrest in human U251 cells assessed as accumulation at S phase at 6 uM measured after 48 hrs by propidium iodide staining based FACScan flow cytometry (reference value: 16.34 %); format: functional
[40] = test system: U-251; experiment: Antiproliferative activity against human U251 cells assessed as cell proliferation at 8 uM measured after 48 hrs relative to control; format: functional; settings: U-251, 48 h, read-out: Activity

C[C@H]1[C@H](C)CC[C@]2(C(=O)O)CC[C@]3(C)C(=CC[C@@H]4[C@@]5(C)C/C(=C(\c6ccc(O)cc6O)C(c6ccccc6O)c6c[nH]c7ccccc67)C(=O)C(C)(C)[C@@H]5CC[C@]43C)[C@H]12 (stereo not given in full)
Activity [1]: Active | Activity [2]: Active | growth at 6 µM [3]: 68% | Activity [4]: Active | Activity [5]: 11.78% | growth at 4 µM [6]: 86% | Activity [7]: 39.78% | Activity [8]: 32.44% | Activity [9]: Dose-dependent effect | Activity [10]: Active | Activity [11]: 9.65% | Activity [12]: Active | Activity [13]: 50% | Activity [14]: inactive | Activity [15]: 69.32% | Activity [16]: 49.26% | Activity [17]: 8.56% | growth at 8 µM [18]: 43% | Activity [19]: Active | growth at 10 µM [20]: 21% | Activity [21]: Active | growth at 2 µM [22]: 99% | Activity [23]: 36.16% | Activity [24]: 42.45% | Activity [25]: Active | Activity [26]: 35.23% | Activity [27]: Active | Activity [28]: 21.65% | Activity [29]: inactive | growth at 6 µM [30]: 61% | Activity [31]: Active | growth at 4 µM [32]: 83% | Activity [33]: Active | growth at 2 µM [34]: 99% | Activity [35]: Dose-dependent effect | Activity [36]: 41.78% | growth at 10 µM [37]: 17% | Activity [38]: 53.76% | Activity [39]: 12.51% | growth at 8 µM [40]: 39%
